Paper PMC10952582, “Pregnenolone sulfate analogues differentially modulate GABAA receptor closed/desensitised states” (British Journal of Pharmacology, 2023)

Assays:
α1β3γ2L GABAAR [1] = molecular target: T1, α1β3γ2L GABAAR (Mus musculus, UniProt P62812); assay: Whole-cell voltage-clamp electrophysiology, wild-type α1β3γ2L GABAARs expressed in HEK cells; format: cell-based, murine; settings: for mean (weighted) decay time (τw) of GABA current: 1 nM PS analogue, 30 μM GABA
T1 construct: expressed in transfected cells; host or cells: HEK 293 cells (ATCC CRL-1573)
T1 sequence (P62812 28-455): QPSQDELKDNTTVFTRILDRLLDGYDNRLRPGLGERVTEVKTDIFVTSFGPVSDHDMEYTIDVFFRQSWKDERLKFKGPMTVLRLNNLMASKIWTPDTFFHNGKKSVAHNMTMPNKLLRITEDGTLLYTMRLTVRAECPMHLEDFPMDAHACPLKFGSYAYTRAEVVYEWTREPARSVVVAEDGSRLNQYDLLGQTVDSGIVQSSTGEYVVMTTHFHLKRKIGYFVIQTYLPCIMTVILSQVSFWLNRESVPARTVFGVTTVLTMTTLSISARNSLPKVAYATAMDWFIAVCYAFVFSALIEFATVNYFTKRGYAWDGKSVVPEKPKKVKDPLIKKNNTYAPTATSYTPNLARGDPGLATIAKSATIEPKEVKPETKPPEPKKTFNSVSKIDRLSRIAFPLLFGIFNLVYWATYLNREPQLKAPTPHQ
T1 sequence (P63080 26-473 partner): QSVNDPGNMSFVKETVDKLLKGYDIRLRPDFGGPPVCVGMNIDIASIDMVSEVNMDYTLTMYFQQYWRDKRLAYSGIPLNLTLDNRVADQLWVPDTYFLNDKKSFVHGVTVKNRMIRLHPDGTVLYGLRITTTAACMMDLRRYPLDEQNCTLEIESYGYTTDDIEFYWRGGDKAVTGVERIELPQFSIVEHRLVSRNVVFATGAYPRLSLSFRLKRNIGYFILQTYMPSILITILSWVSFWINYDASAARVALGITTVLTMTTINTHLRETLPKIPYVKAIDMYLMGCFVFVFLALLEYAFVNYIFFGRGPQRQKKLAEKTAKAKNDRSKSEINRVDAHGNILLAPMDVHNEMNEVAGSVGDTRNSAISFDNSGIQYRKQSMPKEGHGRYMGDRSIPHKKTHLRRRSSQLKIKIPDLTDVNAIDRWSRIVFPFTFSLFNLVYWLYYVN
T1 sequence (P22723 39-474 partner): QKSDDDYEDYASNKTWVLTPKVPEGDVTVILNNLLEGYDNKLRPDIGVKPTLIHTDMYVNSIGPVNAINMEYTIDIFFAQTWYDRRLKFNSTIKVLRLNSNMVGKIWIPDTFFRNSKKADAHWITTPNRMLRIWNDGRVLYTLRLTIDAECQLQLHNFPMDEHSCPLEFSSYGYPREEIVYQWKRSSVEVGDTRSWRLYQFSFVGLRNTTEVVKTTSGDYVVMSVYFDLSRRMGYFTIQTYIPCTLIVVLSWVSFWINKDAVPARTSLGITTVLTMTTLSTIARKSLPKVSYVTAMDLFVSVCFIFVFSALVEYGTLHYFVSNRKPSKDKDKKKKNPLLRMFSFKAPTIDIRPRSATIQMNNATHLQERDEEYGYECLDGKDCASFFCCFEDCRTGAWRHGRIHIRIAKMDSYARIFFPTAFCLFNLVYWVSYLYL
Protocol: (§1) HEK 293 cells (ATCC Cat# CRL‐1573, RRID:CVCL_0045) were maintained and transfected under standard conditions. In brief, cells were grown in monolayers in Dulbecco's modified Eagle's medium supplemented with 10% v/v fetal calf serum, 100 U·ml^−1 of penicillin‐G and 100 μg·ml^−1 of streptomycin and incubated at 37°C in humidified 95% air/5% CO2.
(§2) Before transfection, HEK cells were plated onto 22 mm of glass coverslips (VWR) coated in poly‐L‐lysine (Sigma). Cells were transfected with α1 (wild‐type [wt] or mutant [mut]), β3 (wt), γ2L (wt or mut) and enhanced green fluorescent protein (eGFP) in an equimolar ratio (1:1:1:1), using a calcium‐phosphate precipitation protocol. The transfection solution was prepared from 4 μg of cDNA per coverslip, 20 μl of 340 mM of CaCl2 and 24 μl of 2× HEPES‐buffered saline (HBS) (50 mM of HEPES, 280 mM of NaCl and 2.8 mM of Na2HPO4). Cells were selected for electrophysiology after 16–30 h based on their morphology and moderate GFP fluorescence.
(§3) Coverslips with transfected HEK cells were transferred into a recording chamber on a Nikon Eclipse FN1 microscope with a 470‐nm LED for GFP fluorescence. Cells were continuously perfused with Krebs solution containing (mM) 140 NaCl, 4.7 KCl, 1.2 MgCl2, 2.52 CaCl2, 11 glucose and 5 HEPES (pH 7.4). Patch pipettes (thin‐walled filamented borosilicate glass capillaries; TW150F‐4; WPI, USA; 3–4 MΩ) were filled with an intracellular solution containing (mM) 140 CsCl, 2 NaCl, 2 MgCl2, 5 EGTA, 10 HEPES, 0.5 CaCl2, 2 Na‐ATP and 0.5 Na‐GTP (pH 7.2). Drugs were applied to cells using a Y‐tube delivery system (Mortensen & Smart, [2007]), with the PS analogues pre‐applied 10–12 s before co‐application with GABA.
(§4) HEK cells were voltage clamped at −30 mV using an Axopatch 200B amplifier (Molecular Devices, USA), and whole‐cell currents were filtered at 5 kHz (−36 dB), digitised at 50 kHz via a Digidata 1322A (Molecular Devices) and recorded to a Dell Optiplex 990 using Clampex 10.2 (Molecular Devices). Series resistance was compensated at 60%–70%, and only data with <20% deviation in series resistance would be included in subsequent analyses.
(§5) Weighted time constants for the decay phase (τw) were calculated by fitting a biexponential curve to the current decay waveform and applying the following equation: τw=A1.τ1+A2.τ2/A1+A2, where τ1 and τ2 represent time constants for the two exponential components of the decay phase and A1 and A2 are their relative area contributions.
(§6) Current responses from voltage‐clamp experiments were measured, and decays fitted using ClampFit 10.2 (Molecular Devices) to determine the respective time constants. In Origin, data were plotted as concentration–response curves, and curves fitted using the following inhibition equation: I/Imax=1−B^n/IC50^n+B^n, where I is the current response, B is the concentration of the PS analogue, n is the slope coefficient and IC50 is the analogue concentration producing 50% inhibition of GABA current (inhibitory potency). Potency values are presented as pIC50 with SEM values. The mean was transformed into a molar concentration by pIC50 = −log IC50. Other data are represented as the mean ± SEM.

α1β3γ2LV262F GABAAR = molecular target: T2, α1β3γ2LV262F GABAAR (Mus musculus, UniProt P62812); assay: Whole-cell voltage-clamp electrophysiology, highly desensitising mutant α1β3γ2LV262F in HEK cells; format: cell-based, murine
T2 construct: expressed in transfected cells; host or cells: HEK 293 cells (ATCC CRL-1573)
T2 sequence (P62812 28-455): as the sequence (P62812 28-455) above
T2 sequence (P63080 26-473 partner): as the sequence (P63080 26-473 partner) above
T2 sequence (P22723 39-474 V300F partner): as the sequence (P22723 39-474 partner) above, with V262F counted along it
Protocol: as §1, §2, §3, §4, §5, §6

α1V296Lβ3γ2L GABAAR [2] = molecular target: T3, α1V296Lβ3γ2L GABAAR (Mus musculus, UniProt P62812, V323L); assay: Whole-cell voltage-clamp electrophysiology, minimally desensitising mutant α1V296Lβ3γ2L in HEK cells; format: cell-based, murine
T3 construct: expressed in transfected cells; host or cells: HEK 293 cells (ATCC CRL-1573)
T3 sequence (P62812 28-455 V323L): as the sequence (P62812 28-455) above, with V296L counted along it
T3 sequence (P63080 26-473 partner): as the sequence (P63080 26-473 partner) above
T3 sequence (P22723 39-474 partner): as the sequence (P22723 39-474 partner) above
Protocol: as §1, §2, §3, §4, §5, §6

α1β3γ2L GABAAR [3] = molecular target: T4, α1β3γ2L GABAAR (Mus musculus, UniProt P22723+P62812+P63080); assay: Whole-cell voltage-clamp electrophysiology, wild-type α1β3γ2L GABAARs expressed in HEK cells; format: cell-based, murine
T4 construct: expressed in transfected cells; host or cells: HEK 293 cells (ATCC CRL-1573)
T4 sequence (P62812 28-455): as the sequence (P62812 28-455) above
T4 sequence (P63080 26-473 partner): as the sequence (P63080 26-473 partner) above
T4 sequence (P22723 39-474 partner): as the sequence (P22723 39-474 partner) above
Protocol: as §1, §2, §3, §4, §5, §6

α1F399Aβ3γ2L GABAAR = molecular target: T5, α1F399Aβ3γ2L GABAAR (Mus musculus, UniProt P22723+P62812+P63080, F426A); assay: Whole-cell voltage-clamp electrophysiology, mutant α1F399Aβ3γ2L in HEK cells; format: cell-based, murine
T5 construct: expressed in transfected cells; host or cells: HEK 293 cells (ATCC CRL-1573)
T5 sequence (P62812 28-455 F426A): as the sequence (P62812 28-455) above, with F399A counted along it
T5 sequence (P63080 26-473 partner): as the sequence (P63080 26-473 partner) above
T5 sequence (P22723 39-474 partner): as the sequence (P22723 39-474 partner) above
Protocol: as §1, §2, §3, §4, §5
Current responses from voltage‐clamp experiments were measured, and decays fitted using ClampFit 10.2 (Molecular Devices) to determine the respective time constants. […]

[4] = molecular target: T6, α1F295A, F399Aβ3γ2L GABAAR (Mus musculus, UniProt P22723+P62812+P63080, F322A/F426A); assay: Whole-cell voltage-clamp electrophysiology, mutant α1F295A,F399Aβ3γ2L in HEK cells; format: cell-based, murine
T6 construct: expressed in transfected cells; host or cells: HEK 293 cells (ATCC CRL-1573)
T6 sequence (P62812 28-455 F322A/F426A): as the sequence (P62812 28-455) above, with F295A, F399A counted along it
T6 sequence (P63080 26-473 partner): as the sequence (P63080 26-473 partner) above
T6 sequence (P22723 39-474 partner): as the sequence (P22723 39-474 partner) above
Protocol: as §1, §2, §3, §4, §5, §6

α1F295Aβ3γ2L GABAAR = molecular target: T7, α1F295Aβ3γ2L GABAAR (Mus musculus, UniProt P22723+P62812+P63080, F322A); assay: Whole-cell voltage-clamp electrophysiology, mutant α1F295Aβ3γ2L in HEK cells; format: cell-based, murine
T7 construct: expressed in transfected cells; host or cells: HEK 293 cells (ATCC CRL-1573)
T7 sequence (P62812 28-455 F322A): as the sequence (P62812 28-455) above, with F295A counted along it
T7 sequence (P63080 26-473 partner): as the sequence (P63080 26-473 partner) above
T7 sequence (P22723 39-474 partner): as the sequence (P22723 39-474 partner) above
Protocol: as §1, §2, §3, §4, §5, §6

α1β3γ2L GABAAR [5] = molecular target: T1, α1β3γ2L GABAAR; assay: Kinetic modelling and waveform fitting of GABA currents (ChanneLab); design: species or system murine; settings: waveform fit
Protocol: We used ChanneLab (Version 2.2; Synaptosoft) to build relatively simple kinetic models of the GABAAR. To explore the functional behaviour of PS analogues (compounds) 5 and 6, we incorporated concentration‐dependent PS analogue‐bound states into the model. Simulated currents were generated in ChanneLab and explored at different GABA and PS analogue concentrations. These were evaluated against GABA currents generated under experimental conditions, using the waveform fitting function in ChanneLab. Rate constants connecting receptor states were determined initially empirically with reference to previously published values and varied individually to optimise the fit to the data (seed values) prior to using waveform fitting and Runge–Kutta numerical integration (RK5) to eventually simulate the experimental GABA current profiles with 50 iterations. GABA‐activated membrane currents were fitted over their full timecourse of 20 s.
To investigate, simplified GABAAR models were constructed, incorporating some or all the following receptor states: an unbound closed state (R); GABA‐bound closed ‘composite’ state (RA) that incorporates one or more preactivation states that are not explicitly indicated or a closed (RA) and separate preactivated (RfA) state; a GABA‐bound activated state (RA*); and a desensitised state (RD) accessed via the receptor's activated state. These simple models enable the generation of simulated GABA‐dependent currents, with values for the rate constants determined initially empirically in broad accord with published parameters and manually adjusted to provide seed values before performing waveform fitting with unconstrained rate constants (Figure 8a).
RA* is the activated receptor open channel before moving to a desensitised state RD.

α1V296Lβ3γ2L GABAAR [6] = molecular target: T8, α1V296Lβ3γ2L GABAAR (Mus musculus, UniProt P22723+P62812+P63080, V323L); assay: Whole-cell voltage-clamp electrophysiology, minimally desensitising mutant α1V296Lβ3γ2L in HEK cells; format: cell-based, murine
T8 construct: expressed in transfected cells; host or cells: HEK 293 cells (ATCC CRL-1573)
T8 sequence (P62812 28-455 V323L): as the sequence (P62812 28-455) above, with V296L counted along it
T8 sequence (P63080 26-473 partner): as the sequence (P63080 26-473 partner) above
T8 sequence (P22723 39-474 partner): as the sequence (P22723 39-474 partner) above
Protocol: as §1, §2, §3, §4, §5, §6

[7] = steady-state current after 20 s of 1 mM GABA
[8] = Decay inhibition (pIC50), potency for reducing GABA current weighted decay time constant, 30 μM GABA
[9] = Peak inhibition (IC50), peak current evoked by 30 μM GABA, analogue pre-applied 10–12 s and co-applied
[10] = Peak inhibition (pIC50), peak current evoked by 30 μM GABA, analogue pre-applied 10–12 s and co-applied
[11] = Steady-state inhibition (pIC50), GABA current after 20 s of 30 μM GABA (near steady state)
[12] = Steady-state inhibition (IC50), GABA current after 20 s of 30 μM GABA (near steady state)
[13] = Decay inhibition (pIC50), GABA current weighted decay time constant
[14] = Steady-state inhibition (pIC50), 30 μM GABA, 20 s
[15] = Steady-state inhibition (pIC50), steady-state GABA current
[16] = Decay inhibition (IC50), GABA current weighted decay time constant

SMILES	IC50 (α1β3γ2L GABAAR [3]; [8])	IC50 (α1β3γ2L GABAAR [3]; [9])	IC50 (α1β3γ2L GABAAR [3]; [10])	IC50 (α1β3γ2L GABAAR [3]; [11])	mean (weighted) decay time (τw) of GABA current (α1β3γ2L GABAAR [1])	IC50 (α1β3γ2L GABAAR [3]; [12])	IC50 (α1F399Aβ3γ2L GABAAR; [13])	IC50 (α1F399Aβ3γ2L GABAAR; [14])	IC50 [4, 13]	IC50 [4, 14]	IC50 (α1F295Aβ3γ2L GABAAR; [13])	IC50 (α1F295Aβ3γ2L GABAAR; [14])	IC50 (α1β3γ2LV262F GABAAR; [13])	IC50 (α1β3γ2LV262F GABAAR; [15])	further results
NCCCC(=O)O [GABA, γ‐Aminobutyric acid]															mean weighted decay time constant (τw) of GABA current (α1β3γ2L GABAAR [1]; wild-type α1β3γ2L, 1 mM GABA, 20 s): 3.7 ± 0.17 s; extent of macroscopic desensitisation (α1β3γ2L GABAAR [1]; wild-type α1β3γ2L, steady-state current after 20 s of 1 mM GABA): 68 ± 1.6%; mean weighted decay time constant (τw) of GABA current (α1β3γ2LV262F GABAAR; 1 mM GABA, 20 s): 2.3 ± 0.28 s; extent of macroscopic desensitisation (α1β3γ2LV262F GABAAR; [7]): 89 ± 1.3%; mean weighted decay time constant (τw) of GABA current (α1V296Lβ3γ2L GABAAR [2]; 1 mM GABA, 20 s): 7.4 ± 1.3 s; extent of macroscopic desensitisation (α1V296Lβ3γ2L GABAAR [2]; [7]): 39 ± 6.0%
CC12CCC(OS(=O)(=O)O)CC1=CCC1C2CCC2(C)C(C(=O)CBr)CCC12 (centres unmarked) [compound 2]	0.875 µM	2.7 µM	2.65 µM	0.279 µM	3.8 ± 0.2 s										IC50 (α1β3γ2L GABAAR [3]; Decay inhibition (IC50), potency for reducing GABA current weighted decay time constant, 30 μM GABA): 0.88 µM
C[C@]12CC[C@H](OS(=O)(=O)O)CC1=CCC1C2CC[C@@]2(C)C1CC[C@@H]2C(=O)Cn1ccnc1 (some centres unmarked) [compound 3]	8.51 µM	743 µM		0.891 µM	3.8 ± 0.8 s	~1 µM									
C[C@]12CC[C@H](OS(=O)(=O)O)CC1=CCC1C2CC[C@@]2(C)C1CC[C@@H]2C(=O)CN1CCOCC1 (some centres unmarked) [compound 5]	117 µM		~2000 µM	0.843 µM	3.7 ± 0.1 s	~1 µM	7.89 µM	8.36 µM	7.21 µM	5.22 µM	8.47 µM	2.93 µM	70.8 µM	14.2 µM	rate constant k2, Model (b) (α1β3γ2L GABAAR [5]; Model (b): binding to RA forming RAP, then RAPd, 30 μM GABA): 62900 M⁻¹ s⁻¹; rate constant k3, Model (b) (α1β3γ2L GABAAR [5]; Model (b), 30 μM GABA): 921000 s⁻¹; IC50 (α1V296Lβ3γ2L GABAAR [6]; [13]): 3.24 µM; IC50 (α1V296Lβ3γ2L GABAAR [6]; [15]): 20.7 µM
C[C@]12CC[C@H](OS(=O)(=O)O)CC1=CCC1C2CC[C@@]2(C)C1CC[C@@H]2C(=O)Cn1cccn1 (some centres unmarked) [compound 6]	1.66 µM		220 ± 14.6 µM	1.13 µM	3.8 ± 0.2 s	~1 µM	1.49 µM	7.29 µM	1.23 µM	4.15 µM	1.35 µM	4.51 µM	2.88 µM	25.1 µM	fold difference in current decay potency, compound 6 vs compound 5 (α1β3γ2L GABAAR [1]; wild-type α1β3γ2L, decay IC50 of 5 vs 6): 70 fold; IC50 ([4]; Steady-state inhibition (IC50), 30 μM GABA, 20 s): 4.2 µM; IC50 (α1F295Aβ3γ2L GABAAR; [16]): 1.4 µM; rate constant k4, Model (c) (α1β3γ2L GABAAR [5]; Model (c): binding to RA (RAP) and RD (RDP), 30 μM GABA): 234000 M⁻¹ s⁻¹; rate constant k2, Model (c) (α1β3γ2L GABAAR [5]; Model (c), 30 μM GABA): 129000 M⁻¹ s⁻¹; rate constant k‐4, Model (c) (α1β3γ2L GABAAR [5]; Model (c), 30 μM GABA): 184 s⁻¹; rate constant k2, Model (d) (α1β3γ2L GABAAR [5]; Model (d): binding to preactivated state RfA (RfAP) and RD): 173000 M⁻¹ s⁻¹; rate constant k4, Model (d) (α1β3γ2L GABAAR [5]; Model (d)): 184000 M⁻¹ s⁻¹; rate constant k‐4, Model (d) (α1β3γ2L GABAAR [5]; Model (d)): 307 s⁻¹; IC50 (α1V296Lβ3γ2L GABAAR [6]; [16]): > 100 µM; IC50 (α1V296Lβ3γ2L GABAAR [6]; Steady-state inhibition (IC50), steady-state GABA current): > 100 µM
CC12CCC(OS(=O)(=O)O)CC1=CCC1C2CCC2(C)C(C(=O)Cn3cccc3)CCC12 (centres unmarked) [compound 8]	3.23 µM		33.3 µM	0.236 µM	3.6 ± 0.3 s										
